The values below are quoted from earlier work in US20020132320A1, “Glycoconjugate synthesis using a pathway-engineered organism” (priority 2001, published 2002).

SMILES strings stand for the structures.

Series [1] deals with T1, CMP-NeuNAc synthetase (Escherichia coli O18:K1:H7, UniProt P13266).
T1 construct: host or cells: E. coli K1
Particulars: enzyme purified from E. coli K1; read-out: apparent Km.

The test system of series [2] is UDP-GalNAc pyrophosphorylase. Particulars: substrate of purified UDP-GalNAc pyrophosphorylase.
The target of series [3] is E. coli NanA (Escherichia coli, UniProt P0A6L4). Particulars: cleavage reaction.
The target of series [4] is Hyaluronan synthase (spHAS) (Streptococcus pyogenes, UniProt P0C0H0).
For series [5] the following is noted: relative to morphine.

On to `Nc1ccn([C@@H]2O[C@H](COP(=O)(O)OP(=O)(O)OP(=O)(O)O)[C@@H](O)[C@H]2O)c(=O)n1` [CTP, Cytosine 5′-triphosphate], for which the Km in series [1] was 310 µM.

On to `CC(=O)N[C@H]1C(OP(=O)(O)O)O[C@H](CO)[C@H](O)[C@@H]1O` (stereo partly shown) [GalNAc-1-P, N-acetylgalactosamine-1-phosphate], for which the Km in series [2] is 290 µM.

As to `CC(=O)NC1C(OP(=O)(O)O)OC(CO)C(O)C1O` (stereo not shown) [GlcNAc-1-P], the Km in series [2] is 1100 µM.

As for `CC(=O)N[C@H]1[C@H]([C@H](O)[C@H](O)CO)OC(O)(C(=O)O)C[C@@H]1O` (stereo partly shown) [NeuNAc, N-acetylneuraminic acid], the Michaelis-Menten constant (Km) in series [3] was 4300 µM.

Take `O=C(O)[C@H]1O[C@H](OP(=O)(O)OP(=O)(O)OC[C@H]2O[C@@H](n3ccc(=O)[nH]c3=O)[C@H](O)[C@@H]2O)[C@H](O)[C@@H](O)[C@@H]1O` [UDP-GlcA, uridine 5′-diphosphoglucuronic acid]: in series [4], the Km was 40 ± 4 µM.

In the case of `CC(=O)N[C@H]1[C@@H](OP(=O)(O)OP(=O)(O)OC[C@H]2O[C@@H](n3ccc(=O)[nH]c3=O)[C@H](O)[C@@H]2O)O[C@H](CO)[C@@H](O)[C@@H]1O` [UDP-GlcNAc, uridine 5′-diphospho-N-acetylglucosamine], in series [4], the Km was 149 ± 3 µM.

For `CN1CC[C@]23c4c5ccc(O)c4O[C@H]2[C@@H](O[C@@H]2O[C@H](C(=O)O)[C@@H](O)[C@H](O)[C@H]2O)C=C[C@H]3[C@H]1C5` [morphine-6-O-glucuronide], the “times more active than morphine” value in series [5] is reported as 50 times.

What is called Km is the concentration of substrate that gives half-maximal velocity.
